{"source": "ChEMBL document CHEMBL1201862", "about": "“PubChem BioAssay data set” (2004)", "key": {"[1]": {"assay": "Dose-response inhibition of insulin secretion in a rat insulinoma line at 5 mM glucose (AID 1117331)", "type": "functional, cell-based", "settings": "INS-1E"}, "[2]": {"assay": "inhibitors of Vif binding to APOBEC3G peptide, primary screen, biochemical, TR-FRET, GST-Vif 1-94, biotin-A3G peptide, dose response retest (AID 1117319);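 further: TR-FRET signal of purified GST-Vif binding a biotinylated A3G peptide; inhibitors lower the FRET signal by blocking Vif and A3G binding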", "type": "functional"}, "[3]": {"biological_target": "T1, Mannose-6-phosphate isomerase (Homo sapiens, UniProt P34949)", "T1 sequence (P34949 whole entry)": "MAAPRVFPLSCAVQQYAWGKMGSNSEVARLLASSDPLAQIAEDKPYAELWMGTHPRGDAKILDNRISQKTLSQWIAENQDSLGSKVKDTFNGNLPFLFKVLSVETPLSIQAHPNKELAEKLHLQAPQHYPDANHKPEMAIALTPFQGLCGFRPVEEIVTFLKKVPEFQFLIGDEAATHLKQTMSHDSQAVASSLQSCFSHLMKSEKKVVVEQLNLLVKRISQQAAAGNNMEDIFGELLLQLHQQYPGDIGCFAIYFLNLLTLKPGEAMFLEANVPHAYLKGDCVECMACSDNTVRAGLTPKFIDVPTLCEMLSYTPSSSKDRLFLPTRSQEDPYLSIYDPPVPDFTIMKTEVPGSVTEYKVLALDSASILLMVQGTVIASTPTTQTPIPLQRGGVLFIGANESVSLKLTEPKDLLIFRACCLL", "assay": "inhibitors of human PMI, primary screen, biochemical, fluorescence intensity, coupled assay (AID 1209)"}, "Protein Tat": {"biological_target": "Protein Tat (Human immunodeficiency virus type 1 group M subtype B (isolate HXB2)(HIV-1), UniProt P04608)", "sequence (P04608 whole entry)": "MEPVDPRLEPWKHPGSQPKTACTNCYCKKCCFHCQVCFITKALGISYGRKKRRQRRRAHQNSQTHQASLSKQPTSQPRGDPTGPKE", "type": "functional"}, "[4]": {"biological_target": "T2, RNA-binding protein pos-1 (Caenorhabditis elegans, UniProt G5EF15)", "T2 sequence (G5EF15 whole entry)": "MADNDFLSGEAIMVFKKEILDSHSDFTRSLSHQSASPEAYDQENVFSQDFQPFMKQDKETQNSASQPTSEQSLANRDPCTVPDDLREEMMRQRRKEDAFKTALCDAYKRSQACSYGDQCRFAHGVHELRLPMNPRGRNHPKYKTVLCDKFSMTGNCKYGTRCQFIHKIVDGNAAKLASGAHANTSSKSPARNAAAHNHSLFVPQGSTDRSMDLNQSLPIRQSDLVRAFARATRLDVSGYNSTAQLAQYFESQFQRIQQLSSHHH", "assay": "inhibitors of POS-1/mex-3 RNA binding, dose response, biochemical, fluorescence polarization (AID 1964);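 further: purified POS-1 fused to maltose binding protein made in E. coli; potency of compounds blocking POS-1 binding to fluorescent RNA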"}, "[5]": {"biological_target": "T3, Zinc finger protein mex-5 (Caenorhabditis elegans, UniProt Q9XUB2)", "T3 sequence (Q9XUB2 whole entry)": "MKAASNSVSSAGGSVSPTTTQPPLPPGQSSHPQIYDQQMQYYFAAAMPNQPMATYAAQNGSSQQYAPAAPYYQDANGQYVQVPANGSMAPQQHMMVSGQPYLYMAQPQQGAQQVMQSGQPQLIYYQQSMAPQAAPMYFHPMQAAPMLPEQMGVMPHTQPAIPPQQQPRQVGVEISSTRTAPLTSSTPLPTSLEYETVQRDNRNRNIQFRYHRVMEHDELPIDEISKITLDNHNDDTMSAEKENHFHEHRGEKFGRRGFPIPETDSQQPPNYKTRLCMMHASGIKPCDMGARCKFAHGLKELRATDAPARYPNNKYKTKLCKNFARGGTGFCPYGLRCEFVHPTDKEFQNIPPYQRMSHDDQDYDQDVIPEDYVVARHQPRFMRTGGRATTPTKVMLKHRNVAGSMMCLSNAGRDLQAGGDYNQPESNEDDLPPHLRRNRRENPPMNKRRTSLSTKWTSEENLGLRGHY", "assay": "MEX-5/TCR-2 RNA interaction inhibitors, dose response, biochemical, C. elegans, fluorescence polarization (AID 1960)"}, "[6]": {"biological_target": "Mitogen-activated protein kinase 10 (Homo sapiens, UniProt P53779)", "sequence (P53779 whole entry)": "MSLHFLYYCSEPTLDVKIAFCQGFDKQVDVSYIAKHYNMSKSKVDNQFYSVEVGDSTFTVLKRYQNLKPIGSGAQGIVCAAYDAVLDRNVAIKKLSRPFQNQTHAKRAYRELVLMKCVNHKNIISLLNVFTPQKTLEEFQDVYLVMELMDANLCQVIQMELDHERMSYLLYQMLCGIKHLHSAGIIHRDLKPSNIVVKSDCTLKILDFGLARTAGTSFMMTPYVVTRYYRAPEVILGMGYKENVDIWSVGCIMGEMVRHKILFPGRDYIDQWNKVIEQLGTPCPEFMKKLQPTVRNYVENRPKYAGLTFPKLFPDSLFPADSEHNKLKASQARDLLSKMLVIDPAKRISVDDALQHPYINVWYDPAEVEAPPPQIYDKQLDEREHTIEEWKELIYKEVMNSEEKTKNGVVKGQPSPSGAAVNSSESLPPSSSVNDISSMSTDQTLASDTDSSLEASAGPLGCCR", "assay": "Dose response biochemical screening assay for inhibitors of c-Jun N-Terminal Kinase 3 (JNK3). [Related pubchem assays: 746 ]"}}, "note": "Counter-ions that a name gives are not always drawn. The source made the active and inactive calls.", "data": [{"compound": "CN(C)CCCOc1nn(Cc2ccccc2)c2ccccc12", "note": "[BENZYDAMINE HYDROCHLORIDE]", "values": [{"measurement": "IC50", "setting": "[1]", "result": "21.4 µM (inactive)"}]}, {"compound": "O=C(NCCCN1CCOCC1)C1CC(=O)N(CCc2ccccc2)C1", "note": "(stereo not drawn)", "values": [{"measurement": "IC50", "setting": "[2]", "result": "> 100 µM (active)"}]}, {"compound": "Cc1cc(O)c(Oc2cc(C)cc(O)c2O)c(O)c1", "values": [{"measurement": "IC50", "setting": "[3]", "result": "39.5 µM (active)"}, {"measurement": "IC50", "setting": "Protein Tat", "result": "> 100 µM (active)"}, {"measurement": "EC50", "setting": "[4]", "result": "43.9 µM (active)"}, {"measurement": "EC50", "setting": "[5]", "result": "12.9 µM (active)"}]}, {"compound": "COc1ccc(/C=N/n2c(N)nc3ccccc32)cc1OC", "values": [{"measurement": "IC50", "setting": "[6]", "result": "16.6 µM (not active)"}]}, {"compound": "CN1CCN(C(=O)CSc2nc(-c3cccs3)ccc2C#N)CC1", "values": [{"measurement": "IC50", "setting": "Protein Tat", "result": "> 100 µM (active)"}]}]}
